Reference: patent US9546367B2, “siRNA compositions and methods for inhibiting gene expression in tumor initiating cells of breast cancer” (priority 2011, dated 2017)

How the values were obtained:
SUM159 tumor = assay: MDS/siRNA by tail vein in SUM159 tumor mice, MSFE of isolated cells; assay type: in vivo, SCID/Beige mice; conditions: MDS/siRNA by tail vein injection, cells isolated 3 weeks later
Protocol: To develop siRNA nanotherapeutics targeting TIC, studies have been conducted to confirm the essential roles of the candidate TIC genes. Exemplary siRNA oligonucleotides specific for STAT3, MFL2, and RPL39L were formulated into nanoliposomes, which were then loaded into porous silicon MSV particles. For in vitro assay, BT549 and SUM159 cells were incubated with MSV/siRNA, and primary and secondary MSFE was measured. […] For in vivo assessment, SCID/Beige mice were inoculated with SUM159 tumor, and treated with MDS/siRNA delivered by tail vein injection. Cells were then isolated from tumor mice 3 weeks later, and MSFE was measured. […] These studies indicate that 1) MDS/siRNA could successfully be delivered to tumor tissues effectively in vivo, 2) uptake of MDS/siRNA by TIC was efficient, and 3) MFL2 and RPL39L were essential genes for TIC.

BCM2665 xenografts = assay: short-term in vivo siRNA (multistage particle) treatment, BCM2665 patient-derived xenograft; parameters: species or system SCID-Beige mice; conditions: for tumor volume: BCM2665; for secondary MSFE: BCM2665 xenograft cells, tumors collected after two weeks; for Aldefluor levels: BCM2665 xenografts, reduction not statistically significant
Protocol: FIG. 10A, FIG. 10B, FIG. 10C, and FIG. 10D illustrate the short-term, in vivo treatment of siRNA in triple-negative, patient-derived human cancer in a murine model xenograft, BCM2665. BCM2665 cells were transplanted into cleared mammary fat pad of SCID beige mice (n=9). These tumors were randomized into the same six groups as stated in the preceding figure, and treated in a manner identical to the SUM159 xenografts. […] RPL39 and MLF2 siRNA respectively. […] Data were analyzed by one-way ANOVA, and are plotted as mean±SEM for n=9 replicates; *p<0.05;
The effect of MLF2 and RPL39 using siRNA packaged in multistage nanoparticles in two different triple negative models were studied. SUM159 and a patient-derived human cancer xenograft (BCM2665) from a primary human breast cancer transplanted in SCID-Beige mice, the test group had 54 mice per xenograft line, and 9 mice per treatment arm. When tumor sizes reached 150 to 300 mm^3, mice were divided into six groups: (1) vehicle-treated, (2) chemotherapy on day 0 with one dose of docetaxel 20 mg/kg by intraperitoneal (i.p.) injection. (3) siRNA against MLF2 packaged in nanoparticles (single injection intravenous (i.v.) on Day 1), (4) combination treatment with docetaxel (20 mg/kg i.p. on Day 1) and siRNA against MLF2 (single injection i.v. on Day 1), (5) siRNA against RPL39 packaged in nanoparticles (single injection i.v. on Day 1), and (6) combination treatment with docetaxel (20 mg/kg i.p. on Day 1) and siRNA against inhibitor […] (single injection iv. on Day 1). The same dose (15 μg siRNA) was used in all experiments. Animals were sacrificed on Day 14. The tumors were harvested and analyzed for downstream effects on BCSC self-renewal using FACS analysis, and MSFE.
The fraction of BCSCs in the xenograft tumors from the six treatment groups were processed by mincing and digesting the tumors using collagenase type III, for 3 hrs at 37° C. in order to dissociate the tumors into single cells. Changes in CD44+/CD24/Lin− and Aldefluor® were analyzed as described previously (Li et al., 2008). Briefly, cells were stained with primary antibodies antiCD44 labeled APC (dilution 1:10. BD Biosciences), anti-CD24-labeled FITC (dilution 1:10, BD Biosciences), and additionally with H2KD-labeled PE to eliminate all mouse, lineage-positive cells. The cells were incubated in HBSS (Hanks Balanced Salt Solution, GIBCO) for 15 min on ice with 2% FBS for the antibodies and 45 min for Aldefluor® reagent. Following incubation, cells were washed once with HBSS and re-suspended in HBSS supplemented with 2% FBS. […] (PI) was added to the cells for live/dead gating prior to FACS analysis.
Mammosphere formation efficiency, the in vitro assay for stem cell self-renewal, was performed as described previously (Dontu et al., 2003; Dontu et al., 2005; Li et al., 2008). Single cells were plated in ultra-low attachment plates (Corning, Acton, Mass., USA) at the density 40,000 viable cells/mL for BCM2665 in primary culture, and at the density 10,000 viable cells/mL in secondary culture. For mammosphere culture, cells were grown in serum-free mammary epithelial basal medium (MEGM) (Lonza, Inc.) supplemented with B27 (Invitrogen), 20 ng/mL EGF (BD Biosciences), and 1% heparin (Sigma Chemical Co.) in a humidified incubator ([…]: 95% air, 37° C. for 14 days, as previously described (Li et al., 2008).

MDAMB231 lung metastasis = assay: in vivo lung metastasis of luciferase-tagged MDAMB231, IVIS imaging; parameters: species or system SCID-beige mice; conditions: siRNA in cationic liposomes twice weekly; for lung metastasis (animals with metastasis / animals), IVIS imaging: week six; for luminescence (luciferase analysis): p<0.05
Protocol: 3 million cells MDAMB231 cancer cells, stably transfected with luciferase, were injected in the mammary fat pad of SCID-beige mice and were randomized into 3 groups: (1) vehicle+scrambled siRNA, (2) vehicle+MLF2 siRNA, and (3) vehicle+RPL39 siRNA, and treated with siRNA packaged liposomes twice weekly for 6 weeks. The mice were injected with D-luciferin every week for 6 weeks to determine lung metastases using IVIS imaging (Perkin Elmer). The primary tumors were removed by week 5 to continue this study without increasing the primary tumor burden to 10% of body weight.
To assess the effects of RPL39 and MLF2 siRNA on lung metastasis, SCID-Beige mice were injected with luciferase-tagged MDAMB231 cells and treated with siRNA against RPL39 or MLF2 packaged in cationic liposomes, twice weekly simultaneously, and then sacrificed at week six.

[1] = siRNA alone (15 μg i.v., MSV) vs vehicle
[2] = siRNA+chemotherapy vs standard-dose docetaxel (20 mg/kg)

| Substance | MSFE of cells isolated from tumor mice (SUM159 tumor) | tumor volume (BCM2665 xenografts; [1]) | tumor volume (BCM2665 xenografts; [2]) | secondary MSFE (BCM2665 xenografts) | Aldefluor levels (BCM2665 xenografts) | lung metastasis (animals with metastasis / animals), IVIS imaging (MDAMB231 lung metastasis) | luminescence (luciferase analysis) (MDAMB231 lung metastasis) |
| --- | --- | --- | --- | --- | --- | --- | --- |
| RPL39 siRNA: siRNA against ribosomal protein L39-like; sense SEQ ID NO: 15 ACGATTCCTGGCCAAGAAACAA, antisense SEQ ID NO: 31 TTGTTTCTTGGCCAGGAATCGC (listed as DNA, chemistry not fully specified) | Dramatic reduction | Significant reduction | Similarly, observations were obtained | Significant decrease | reduction | 5/11 | significant reduction |
| MLF2 siRNA: siRNA against myeloid leukemia factor 2; sense SEQ ID NO: 3 CCCTGATGGATCCCTTTGCTAT, antisense SEQ ID NO: 19 ATAGCAAAGGGATCCATCAGGA (packaged in nanoliposomes, chemistry not given here, further chemistry not given here) | Dramatic reduction | Significant reduction | Similarly, observations were obtained | Significant decrease | reduction | 8/12 | significant reduction |
